Columns and labels:
[1] = tested on: PCP induced hyperactivity in male mice (NMRI); experiment: Phencyclidine (PCP) induced hyperactivity; type: in vivo; settings: at 5 mg/kg, per os 60 min before PCP 2.3 mg/kg s.c.
Experimental: Male mice (NMRI, Charles River) weighing 20-25 g are used. Eight mice are used in each group receiving the test compound (5 mg/kg) plus PCP (2.3 mg/kg) including the parallel control groups receiving the vehicle of the test compound plus PCP or vehicle injections only. The injection volumen is 10 ml/kg. The experiment is made in normal light conditions in an undisturbed room. The test substance is injected per oss 60 min before injection of PCP, which is administered subcutaneous.
Immediately after injection of PCP the mice are placed individually in special designed test cage (20 cm×32 cm). The activity is measured by 5×8 infrared light sources and photocells spaced by 4 cm. The light beams cross the cage 1.8 cm above the bottom of the cage. Recording of a motility count requires interruption of adjacent light beams, thus avoiding counts induced by stationary movements of the mice.
Motility is recorded in 5 min intervals for a period of 1 hour. The drug effect is calculated on the total counts during the 1 hour behavioral test period in the following manner. […] The 100 percent effect of PCP is accordingly calculated to be total motility counts minus baseline. The response in groups receiving test compound is thus determined by the total motility counts minus baseline, expressed in percent of the similar result recorded in the parallel PCP control group. […]

catalepsy in rats = settings: cited from earlier work
[2] = tested on: hyperactivity in rats induced by PCP; settings: cited from earlier work

| SMILES | Inhibition of PCP induced hyperactivity [1] | Effect on the cataleptic effect of the D2 receptor antagonist haloperidol (catalepsy in rats; combined with haloperidol) | Catalepsy on its own (catalepsy in rats; papaverine alone) | Effect on hyperactivity induced by PCP [2] |
| --- | --- | --- | --- | --- |
| Cc1ncc(C)n2nc(CCc3cn4c(n3)-c3ccccc3C4)nc12 [2-[-2-(5,8-Dimethyl-[1,2,4]triazolo[1,5-a]pyrazin-2-yl)-ethyl]-5H-imidazo[2,1-a]isoindole] | 100% |  |  |  |
| COc1ccc(Cc2nccc3cc(OC)c(OC)cc23)cc1OC [Papaverine] |  | potentiated the cataleptic effect | did not cause catalepsy on its own | reduced hyperactivity |
